From PubChem BioAssay (NCI)
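GI50 marks 50% less growth. TGI: total growth inhibition.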

Key:
Assay in all cases: DTP human tumour cell line panel, 384-well format
LOX IMVI melanoma = system: LOX IMVI melanoma
T-47D breast = system: T-47D breast
U251 glioblastoma = system: U251 glioblastoma
MDA-MB-468 breast = system: MDA-MB-468 breast
NCI-H522 lung = system: NCI-H522 lung
SK-MEL-5 melanoma = system: SK-MEL-5 melanoma
SN12C renal = system: SN12C renal
HCT-116 colon = system: HCT-116 colon
A549 NSCLC = system: A549 NSCLC
MALME-3M melanoma = system: MALME-3M melanoma
SR leukemia = system: SR leukemia
RPMI-8226 leukemia = system: RPMI-8226 leukemia
SK-OV-3 ovarian = system: SK-OV-3 ovarian
MCF7 breast = system: MCF7 breast
RXF 393 renal = system: RXF 393 renal
COLO 205 colon = system: COLO 205 colon
SK-MEL-2 melanoma = system: SK-MEL-2 melanoma
SNB-19 CNS = system: SNB-19 CNS
PC-3 prostate = system: PC-3 prostate
BT-549 breast = system: BT-549 breast
786-0 renal = system: 786-0 renal
UO-31 renal = system: UO-31 renal
SF-268 CNS = system: SF-268 CNS
OVCAR-3 ovarian = system: OVCAR-3 ovarian
K-562 leukemia = system: K-562 leukemia
HOP-92 NSCLC = system: HOP-92 NSCLC
CAKI-1 renal = system: CAKI-1 renal
CCRF-CEM leukemia = system: CCRF-CEM leukemia
KM12 colon = system: KM12 colon
MDA-MB-435 melanoma = system: MDA-MB-435 melanoma
NCI-H226 lung = system: NCI-H226 lung
M14 melanoma = system: M14 melanoma
TK-10 renal = system: TK-10 renal
HT29 colon = system: HT29 colon
HOP-62 NSCLC = system: HOP-62 NSCLC
SK-MEL-28 melanoma = system: SK-MEL-28 melanoma
OVCAR-5 ovarian = system: OVCAR-5 ovarian
SF-295 CNS = system: SF-295 CNS
IGROV1 ovarian = system: IGROV1 ovarian
OVCAR-4 ovarian = system: OVCAR-4 ovarian
OVCAR-8 ovarian = system: OVCAR-8 ovarian
NCI/ADR-RES ovarian = system: NCI/ADR-RES ovarian
UACC-257 melanoma = system: UACC-257 melanoma
NCI-H23 lung = system: NCI-H23 lung
ACHN renal = system: ACHN renal
HCT-15 colon = system: HCT-15 colon
UACC-62 melanoma = system: UACC-62 melanoma
HL-60(TB) leukemia = system: HL-60(TB) leukemia
SF-539 CNS = system: SF-539 CNS
MOLT-4 leukemia = system: MOLT-4 leukemia
SW-620 colon = system: SW-620 colon
A498 renal = system: A498 renal
DU-145 prostate = system: DU-145 prostate
MDA-MB-231 breast = system: MDA-MB-231 breast
NCI-H460 NSCLC = system: NCI-H460 NSCLC
NCI-H322M lung = system: NCI-H322M lung
HCC-2998 colon = system: HCC-2998 colon

For `COc1ccc(-c2ccc3ncc4c(c3c2)n(-c2ccc(N3CCNCC3)c(C(F)(F)F)c2)c(=O)n4C)cn1`, the GI50 (LOX IMVI melanoma) was under 10 nM, the TGI (LOX IMVI melanoma) was 49 nM and the GI50 (T-47D breast) was under 10 nM. For the same compound, the TGI (T-47D breast) was under 10 nM, the GI50 (U251 glioblastoma) was under 10 nM and the TGI (U251 glioblastoma) was 134 nM. It also gave a GI50 (MDA-MB-468 breast) of under 10 nM, a TGI (MDA-MB-468 breast) of under 10 nM and a GI50 (NCI-H522 lung) of under 10 nM. The TGI (NCI-H522 lung) was 50.9 nM, the GI50 (SK-MEL-5 melanoma) was under 10 nM and the TGI (SK-MEL-5 melanoma) was 13.8 nM. The GI50 (SN12C renal) was under 10 nM, the TGI (SN12C renal) was 154 nM and the GI50 (HCT-116 colon) was under 10 nM. It also gave a TGI (HCT-116 colon) of 130 nM, a GI50 (A549 NSCLC) of under 10 nM and a TGI (A549 NSCLC) of 25.4 nM. It also gave a GI50 (MALME-3M melanoma) of under 10 nM, a TGI (MALME-3M melanoma) of under 10 nM and a GI50 (SR leukemia) of under 10 nM. For the same compound, the TGI (SR leukemia) was under 10 nM, the GI50 (RPMI-8226 leukemia) was under 10 nM and the TGI (RPMI-8226 leukemia) was under 10 nM. For the same compound, the GI50 (SK-OV-3 ovarian) was under 10 nM, the TGI (SK-OV-3 ovarian) was under 10 nM and the GI50 (MCF7 breast) was under 10 nM. It also gave a TGI (MCF7 breast) of 120 nM, a GI50 (RXF 393 renal) of under 10 nM and a TGI (RXF 393 renal) of 19.3 nM. The GI50 (COLO 205 colon) was under 10 nM, the TGI (COLO 205 colon) was 21.7 nM and the GI50 (SK-MEL-2 melanoma) was under 10 nM. The TGI (SK-MEL-2 melanoma) was 36.5 nM, the GI50 (SNB-19 CNS) was under 10 nM and the TGI (SNB-19 CNS) was 192 nM. It also gave a GI50 (PC-3 prostate) of under 10 nM, a TGI (PC-3 prostate) of 106 nM and a GI50 (BT-549 breast) of under 10 nM. It also gave a TGI (BT-549 breast) of 17.2 nM, a GI50 ([…]-0 renal) of under 10 nM and a TGI (786-0 renal) of 151 nM. The GI50 (UO-31 renal) was under 10 nM, the TGI (UO-31 renal) was 16.7 nM and the GI50 (SF-268 CNS) was under 10 nM. For the same compound, the TGI (SF-268 CNS) was 131 nM, the GI50 (OVCAR-3 ovarian) was under 10 nM and the TGI (OVCAR-3 ovarian) was 96 nM. It also gave a GI50 (K-562 leukemia) of under 10 nM, a TGI (K-562 leukemia) of 124 nM and a GI50 (HOP-92 NSCLC) of under 10 nM. For the same compound, the TGI (HOP-92 NSCLC) was 19.1 nM, the GI50 (CAKI-1 renal) was under 10 nM and the TGI (CAKI-1 renal) was 14.9 nM. The GI50 (CCRF-CEM leukemia) was under 10 nM, the TGI (CCRF-CEM leukemia) was 13.6 nM and the GI50 (KM12 colon) was under 10 nM. For the same compound, the TGI (KM12 colon) was 141 nM, the GI50 (MDA-MB-435 melanoma) was under 10 nM and the TGI (MDA-MB-435 melanoma) was 34 nM. For the same compound, the GI50 (NCI-H226 lung) was under 10 nM, the TGI (NCI-H226 lung) was 32.5 nM and the GI50 (M14 melanoma) was under 10 nM. The TGI (M14 melanoma) was 64.9 nM, the GI50 (TK-10 renal) was under 10 nM and the TGI (TK-10 renal) was 50.6 nM. The GI50 (HT29 colon) was under 10 nM, the TGI (HT29 colon) was 135 nM and the GI50 (HOP-62 NSCLC) was under 10 nM. For the same compound, the TGI (HOP-62 NSCLC) was 21.6 nM, the GI50 (SK-MEL-28 melanoma) was under 10 nM and the TGI (SK-MEL-28 melanoma) was 42 nM. It also gave a GI50 (OVCAR-5 ovarian) of under 10 nM, a TGI (OVCAR-5 ovarian) of 105 nM and a GI50 (SF-295 CNS) of under 10 nM. The TGI (SF-295 CNS) was 10.5 nM, the GI50 (IGROV1 ovarian) was under 10 nM and the TGI (IGROV1 ovarian) was under 10 nM. For the same compound, the GI50 (OVCAR-4 ovarian) was under 10 nM, the TGI (OVCAR-4 ovarian) was under 10 nM and the GI50 (OVCAR-8 ovarian) was under 10 nM. It also gave a TGI (OVCAR-8 ovarian) of 124 nM, a GI50 (NCI/ADR-RES ovarian) of 107 nM and a TGI (NCI/ADR-RES ovarian) of 226 nM. The GI50 (UACC-257 melanoma) was 11.7 nM, the TGI (UACC-257 melanoma) was 51.5 nM and the GI50 (NCI-H23 lung) was 11.4 nM. The TGI (NCI-H23 lung) was 82 nM, the GI50 (ACHN renal) was under 10 nM and the TGI (ACHN renal) was 43.8 nM. It also gave a GI50 (HCT-15 colon) of under 10 nM, a TGI (HCT-15 colon) of 129 nM and a GI50 (UACC-62 melanoma) of under 10 nM. It also gave a TGI (UACC-62 melanoma) of 28.3 nM, a GI50 (HL-60(TB) leukemia) of 15.5 nM and a TGI (HL-60(TB) leukemia) of 111 nM. It also gave a GI50 (SF-539 CNS) of under 10 nM, a TGI (SF-539 CNS) of 26.3 nM and a GI50 (MOLT-4 leukemia) of under 10 nM. It also gave a TGI (MOLT-4 leukemia) of under 10 nM, a GI50 (SW-620 colon) of under 10 nM and a TGI (SW-620 colon) of 122 nM. The GI50 (A498 renal) was under 10 nM, the TGI (A498 renal) was under 10 nM and the GI50 (DU-145 prostate) was under 10 nM. It also gave a TGI (DU-145 prostate) of 128 nM, a GI50 (MDA-MB-231 breast) of under 10 nM and a TGI (MDA-MB-231 breast) of 158 nM. For the same compound, the GI50 (NCI-H460 NSCLC) was under 10 nM, the TGI (NCI-H460 NSCLC) was 83.3 nM and the GI50 (NCI-H322M lung) was under 10 nM. For the same compound, the TGI (NCI-H322M lung) was 109 nM, the GI50 (HCC-2998 colon) was under 10 nM and the TGI (HCC-2998 colon) was 103 nM.
